This is an account of results in patent US9061041B2, “2′-substituted nucleoside derivatives and methods of use thereof for the treatment of viral diseases” (Merck Sharp & Dohme Corp., priority 2011, dated 2015).

Some results are limits rather than exact numbers.

The test system of the first data set is HCV replicon (1b) cells. Nature of the data set: Cell-based HCV replicon assay.
Conditions: not given
The protocol:
To measure cell-based anti-HCV activity of selected compounds of the present invention, replicon cells were seeded at 5000 cells/well in 96-well collagen I-coated Nunc plates in the presence of the test compound. […]. Cells were harvested on day 3 by the addition of 1× cell lysis buffer (Ambion cat #8721). The replicon RNA level was measured using real time PCR (Taqman assay). The amplicon was located in 5B. The PCR primers were: 5B.2F, […] (SEQ ID. NO. 1); 5B.2R, […] (SEQ ID. NO. 2); the probe sequence was FAM-labeled […] (SEQ ID. NO. 3). GAPDH RNA was used as endogenous control and was amplified in the same reaction as NS5B (multiplex PCR) using primers and VIC-labeled probe recommended by the manufacturer (PE Applied Biosystem). The real-time RT-PCR reactions were run on ABI PRISM 7900HT Sequence Detection System using the following program: 48° C. for 30 minutes, 95° C. for 10 minutes, 40 cycles of 95° C. for 15 sec, 60° C. for 1 minute. The ΔCT values (CT5B-CTGAPDH) were plotted against the concentration of test compound and fitted to the sigmoid dose-response model using XLfit4 (MDL). […]; Alternatively, to quantitate the absolute amount of replicon RNA, a standard curve was established by including serially diluted T7 transcripts of replicon RNA in the Taqman assay. All Taqman reagents were from PE Applied Biosystems. Such an assay procedure was described in detail in e.g. Malcolm et al., Antimicrobial Agents and Chemotherapy 50: 1013-1020 (2006).
The compound `CCOc1nc(N)nc2c1ncn2[C@@H]1O[C@H](CO)[C@@H](O)[C@@]1(C)N` [Compound 10] gave a 50% effective concentration (EC50) of 29 µM.
Same read-out and setting: under `C[C@@]1(n2ccnn2)[C@H](O)[C@@H](CO)O[C@H]1n1ccc(N)nc1=O` [Compound 4] stands more than 100 µM; under `C[C@@]1(Cl)[C@H](O)[C@@H](CO)O[C@H]1n1ccc(N)nc1=O` [Compound 6], 10 µM.
Same read-out and setting: under `CC(=O)N[C@]1(C)[C@H](O)[C@@H](CO)O[C@H]1n1ccc(N)nc1=O` [Compound 9] stands 100 µM; under `C[C@@]1(S(C)(=O)=O)[C@H](O)[C@@H](CO)O[C@H]1n1ccc(N)nc1=O` [Compound 3], more than 100 µM.

Staying with this data set, now noted: Hepatitis C virus, 72 h, replicon RNA level by real time PCR, cells harvested on day 3.
In turn, `CC(C)OP1(=O)OC[C@H]2O[C@@H](n3ccc(N)nc3=O)[C@](C)(N)[C@@H]2O1` (stereo partly shown) [Compound 78] came in with a 50% effective concentration (EC50) of 30 µM.
Regarding `C[C@@]1(N)[C@H](O)[C@@H](CO)O[C@H]1n1cnc2c(N3CCC3)nc(N)nc21` [Compound 17], the EC50 was more than 100 µM.
Turning to `C[C@@]1(N)[C@@H]2OP(=O)(OC3CCC3)OC[C@H]2O[C@H]1n1ccc(N)nc1=O` (stereo partly shown) [Compound 79], the midpoint of the response, the EC50, lay at 2.8 µM.
`CC(C)COC(=O)[C@H](C)NP(=O)(OC[C@H]1O[C@@H](n2ccc(=O)[nH]c2=O)[C@](C)(N)[C@@H]1O)Oc1ccccc1` (single isomer, unassigned) [Compound 67]: a half-maximal effect (EC50) was put at 6.8 µM.
Same read-out and setting: to `CC(C)COC(=O)[C@H](C)NP(=O)(OC[C@H]1O[C@@H](n2ccc(N)nc2=O)[C@](C)(N)[C@@H]1O)Oc1ccccc1` (single isomer, unassigned) [Compound 64] belongs 6.6 µM; to `CCOc1nc(N)nc2c1ncn2[C@@H]1O[C@H](COP(=O)(N[C@@H](C)C(=O)OC)Oc2ccccc2)C(O)[C@@]1(C)NC(N)=O` (stereo partly shown) [Compound 12], more than 100 µM.
Same read-out and setting: to `COC(=O)[C@H](C)NP(=O)(OC[C@H]1O[C@@H](n2ccc(N)nc2=O)[C@](C)(Cl)[C@@H]1O)Oc1ccccc1` (stereo partly shown) [Compound 8] belongs 34 µM; to `C[C@@]1(N)[C@H](O)[C@@H](CO)O[C@H]1n1ccc(=O)[nH]c1=O` [Compound 16], more than 100 µM.
On the same count and under the same terms, under `COc1nc(N)nc2c1ncn2[C@@H]1O[C@H](CO)[C@@H](O)[C@@]1(C)N` [Compound 15] stands more than 100 µM; under `CCOC(=O)[C@H](C)NP(=O)(OC[C@H]1O[C@@H](n2cnc3c(OC)nc(N)nc32)[C@](C)(N)C1O)Oc1ccccc1` (single isomer, unassigned) [Compound 28], 0.1 µM; under `CCOc1nc(N)nc2c1ncn2[C@@H]1O[C@H](COP(=O)(N[C@@H](C)C(=O)OC)Oc2ccccc2)[C@@H](O)[C@@]1(C)SC` (stereo partly shown) [Compound 43], 38 µM.
Consider `CCCCOC(=O)[C@H](C)NP(=O)(OC[C@H]1O[C@@H](n2cnc3c(OCC)nc(N)nc32)[C@](C)(SC)[C@@H]1O)Oc1cccc2ccccc12` (stereo partly shown) [Compound 44], for which the concentration giving a half-maximal response (EC50) came out at 24 µM.
In the case of `CCOc1nc(N)nc2c1ncn2[C@@H]1O[C@H](COP(=O)(N[C@@H](C)C(=O)OC)Oc2ccccc2)C(O)[C@@]1(C)N` (single isomer, unassigned) [Compound 21], the half-maximal effective concentration (EC50) came to 2.6 µM.

The data set is the same for the next values; noted with them: replicon RNA level by real time PCR, cells harvested on day 3.
`C[C@@]1(C(N)=O)[C@H](O)[C@@H](CO)O[C@H]1n1ccc(N)nc1=O` [Compound 85] gave a concentration for a half-maximal effect (EC50) of 45 µM.
Turning to `COC(=O)[C@H](C)NP(=O)(OC[C@H]1O[C@@H](n2ccc(N)nc2=O)[C@](C)(SC)[C@@H]1O)Oc1ccccc1` (stereo partly shown) [Compound 7], the half-maximal effective concentration (EC50) stood at 29 µM.
The same measure, in the same setting: to `C[C@H](NP(=O)(OC[C@H]1O[C@@H](n2ccc(N)nc2=O)[C@](C)(N)C1O)Oc1ccccc1)C(=O)OCC(C)(C)C` (single isomer, unassigned) [Compound 59] belongs 11 µM; to `C[C@H](NP(=O)(OC[C@H]1O[C@@H](n2ccc(=O)[nH]c2=O)[C@](C)(N)C1O)Oc1ccccc1)C(=O)OCC(C)(C)C` (single isomer, unassigned) [Compound 56], 0.7 µM.
For `COc1nc(N)nc2c1ncn2[C@@H]1O[C@@H]2COP(=O)(OC(C)C)O[C@H]2[C@@]1(C)N` (stereo partly shown) [Compound 98], the half-maximal effective concentration (EC50) worked out at 43 µM.
The compound `COc1nc(N)nc2c1ncn2[C@@H]1O[C@H](COP(=O)(N[C@@H](C)C(=O)OC(C)C)Oc2ccccc2)C(O)[C@@]1(C)N` (single isomer, unassigned) [Compound 23] had an EC50 of more than 100 µM.
Still for that read-out and setting: to `C[C@H](NP(=O)(OC[C@H]1O[C@@H](n2ccc(=O)[nH]c2=O)[C@](C)(N)C1O)Oc1ccccc1)C(=O)OCC(C)(C)C` (single isomer, unassigned) [Compound 57] belongs 9.9 µM.
Turning to `C[C@@]1(N)[C@H](O)[C@@H](CO)O[C@H]1n1ccc(N)nc1=O` [Compound 1], the half-maximal effective concentration (EC50) was found to be 100 µM.
Same read-out and setting: to `COc1nc(N)nc2c1ncn2[C@@H]1O[C@H](COP(=O)(N[C@@H](C)C(=O)OCC(C)(C)C)Oc2ccccc2)C(O)[C@@]1(C)N` (single isomer, unassigned) [Compound 52] belongs 0.9 µM; to `CCOc1nc(N)nc2c1ncn2[C@@H]1O[C@H](COP(=O)(N[C@@H](C)C(=O)OCC(C)(C)C)Oc2ccccc2)C(O)[C@@]1(C)N` (single isomer, unassigned) [Compound 54], 1.5 µM.
The compound `COc1nc(N)nc2c1ncn2[C@@H]1O[C@H](COP(=O)(N[C@@H](C)C(=O)OC(C)C)Oc2ccccc2)C(O)[C@@]1(C)N` (single isomer, unassigned) [Compound 22] returned an EC50 of 2.6 µM.
Still for that read-out and setting: under `C[C@H](NP(=O)(OC[C@H]1O[C@@H](n2ccc(N)nc2=O)[C@](C)(N)C1O)Oc1ccccc1)C(=O)OCC(C)(C)C` (single isomer, unassigned) [Compound 58] stands 4.4 µM; under `COC(=O)[C@H](C)NP(=O)(OC[C@H]1O[C@@H](n2ccc(N)nc2=O)[C@](C)(n2ccnn2)[C@@H]1O)Oc1ccccc1` (stereo partly shown) [Compound 5], 90 µM.
Consider `CC(C)OC(=O)[C@H](C)NP(=O)(OC[C@H]1O[C@@H](n2ccc(=O)[nH]c2=O)[C@](C)(N)[C@@H]1O)Oc1ccccc1` (stereo partly shown) [Compound 24], for which the concentration for a half-maximal effect (EC50) came out at 5 µM.
For the compound `CCOc1nc(N)nc2c1ncn2[C@@H]1O[C@H](COP(=O)(N[C@@H](C)C(=O)OC)Oc2ccccc2)C(O)[C@@]1(C)N` (stereo partly shown) [Compound 20], it took 2.5 µM to reach a half-maximal effect (EC50).
Still for that read-out and setting: under `CCOc1nc(N)nc2c1ncn2[C@@H]1O[C@H](COP(=O)(N[C@@H](C)C(=O)OCC(C)(C)C)Oc2ccccc2)C(O)[C@@]1(C)N` (single isomer, unassigned) [Compound 55] stands 3.1 µM; under `COc1nc(N)nc2c1ncn2[C@@H]1O[C@H](COP(=O)(N[C@@H](C)C(=O)OCC(C)(C)C)Oc2ccccc2)C(O)[C@@]1(C)N` (single isomer, unassigned) [Compound 53], 2.7 µM.
Still for that read-out and setting: under `CCOC(=O)[C@H](C)NP(=O)(OC[C@H]1O[C@@H](n2cnc3c(OC)nc(N)nc32)[C@](C)(N)C1O)Oc1ccccc1` (single isomer, unassigned) [Compound 29] stands 0.1 µM.

Another data set relates to replicon cells (1b-Con1). Nature of the data set: Replicon activity assay (1b-Con1). Particulars: Hepatitis C virus, 72 h, three days post-dosing. In kind it is cell-based, HCV.
In turn, `CC(C)OC(=O)[C@H](C)NP(=O)(OC[C@H]1O[C@@H](n2ccc(N)nc2=O)[C@](C)(N)C1O)Oc1ccccc1` (stereo partly shown) yielded an EC50 of 5.5 µM.
In turn, `CCOc1nc(N)nc2c1ncn2[C@@H]1O[C@H](COP(=O)(N[C@@H](C)C(=O)OC)Oc2ccccc2)C(O)[C@@]1(C)N` (stereo partly shown) [drawing 243] returned an EC50 of 2.5 µM.

The next data set concerns replicon cells (1b-Con1). Nature of the data set: Cytotoxicity MTS assay in replicon cells. Conditions: CC50, MTS assay, three days post dosing.
`CC(C)OC(=O)[C@H](C)NP(=O)(OC[C@H]1O[C@@H](n2ccc(N)nc2=O)[C@](C)(N)C1O)Oc1ccccc1` (stereo partly shown) showed a Cytotoxicity of more than 100 µM.
Still for that read-out and setting: to `CCOc1nc(N)nc2c1ncn2[C@@H]1O[C@H](COP(=O)(N[C@@H](C)C(=O)OC)Oc2ccccc2)C(O)[C@@]1(C)N` (stereo partly shown) [drawing 243] belongs more than 100 µM.
